Measured values: patent US20110200626A1, “IQGAP3 EPITOPE PEPTIDES AND VACCINES CONTAINING THE SAME” (Oncotherapy Science, Inc., priority 2008, published 2011)
Entries after “also recorded” stand apart in the source; their conditions may differ. Ends that are not written are not given here.

Legend:
peptide-pulsed T2 cells [1] = experiment: IFN-gamma ELISPOT assay on CTLs induced with HLA-A*0201 restricted peptides; type: cell-based, human; details: against peptide-pulsed target cells compared with control without peptide
peptide-pulsed T2 cells [2] = experiment: IFN-gamma ELISA assay on CTL lines (HLA-A*0201); type: cell-based, human; details: target cells pulsed with corresponding peptide vs without peptide
peptide-pulsed T2 cells [3] = experiment: IFN-gamma ELISA assay on CTL clones established by limiting dilution (HLA-A*0201); type: cell-based, human; details: peptide-pulsed target cells
Description: The dilutions were made to have 0.3, 1, and 3 CTLs/well in 96 round-bottomed micro titer plate (Nalge Nunc International). CTLs were cultured with 1×10^4 cells/well of 2 kinds of human B-lymphoblastoid cell lines, 30 ng/ml of anti-CD3 antibody, and 125 U/ml of IL-2 in a total of 150 and/well of AIM-VMedium containing 5% AS. 50 mcl/well of IL-2 were added to the medium 10 days later so to reach a final concentration of 125 U/ml IL-2. CTL activity was tested on the 14th day, and CTL clones were expanded using the same method as described above (Uchida N et al., Clin Cancer Res 2004 Dec. 15, 10(24): 8577-86; Suda T et al., Cancer Sci 2006 May, 97(5): 411-9; Watanabe T et al., Cancer Sci 2005 August, 96(8): 498-506).
Specifically, peptide-pulsed A24 or T2 LCL (1×10^4/well) was prepared as stimulator cells. Cultured cells in 48 wells were used as responder cells. IFN-gamma ELISPOT assay and IFN-gamma ELISA assay were performed under manufacture procedure.

[4] = system: COS7 cells transfected with IQGAP3 and HLA-A*0201; experiment: Specific CTL activity against target cells exogenously expressing IQGAP3 and HLA-A*0201; type: cell-based; details: for specific CTL activity of CTL clone against controls: COS7 cells expressing either HLA-A*0201 or IQGAP3 alone; for specific CTL activity of CTL clone: COS7 cells transfected with both IQGAP3 and HLA-A*0201
Excerpt: (§1) The cDNA encoding an open reading frame of target genes or HLA-A*0201 was amplified by PCR. The PCR-amplified products were cloned into pCAGGS vector. The plasmids were transfected into COST, which is the target genes and HLA-A*0201-negative cell line, using lipofectamine 2000 (Invitrogen) according to the manufacturer's recommended procedures. After 2 days from transfection, the transfected cells were harvested with versene (Invitrogen) and used as the target cells (5×10^4 cells/well) for CTL activity assay

[5] = system: COS7 cells transfected with IQGAP3 and HLA-A*2402; experiment: Specific CTL activity against target cells exogenously expressing IQGAP3 and HLA-A*2402; type: cell-based
Excerpt: as §1, with “gene” for “genes”, “HLA-A24” for “HLA-A*0201”, “product was” for “products were”, “COS7,” for “COST,”, “HLA-A24-null” for “HLA-A*0201-negative”, “assay.” for “assay”

[6] = system: peptide-pulsed A24LCL cells; experiment: IFN-gamma ELISA assay on CTL lines (HLA-A*2402); type: cell-based, human; details: target cells pulsed with corresponding peptide vs without peptide
[7] = system: peptide-pulsed A24LCL cells; experiment: IFN-gamma ELISPOT assay on CTLs induced with HLA-A*2402 restricted peptides; type: cell-based, human; details: against peptide-pulsed target cells compared with control without peptide, listed as IQGAP3-A24-9-779

GLDDVSLPV [SEQ ID NO: 85] was tested, and the “IFN-gamma production of peptide-induced CTLs (ELISPOT)” value (shortened to “IFN-gamma production … (ELISPOT)”) (peptide-pulsed T2 cells [1]; listed as IQGAP3-A02-9-553) was “potent IFN-gamma production ability”, the “IFN-gamma production of established CTL lines (ELISA)” value (peptide-pulsed T2 cells [2]) was “potent IFN-gamma production” and the “IFN-gamma production of CTL clones (ELISA)” value (peptide-pulsed T2 cells [3]; listed as IQGAP3-A02-9-553) was “potent IFN-gamma production”. For the same substance, the “specific CTL activity of CTL clone against controls” value [4] was “no significant specific CTL activity” and the “specific CTL activity of CTL clone” value ([4]; listed as IQGAP3-A02-9-553) was “potent CTL activity; also recorded: specific CTL activity”.
IYLEWLQYF [SEQ ID NO: 7] was tested, and the “specific CTL activity of CTL line against controls” value ([5]; COS7 cells expressing either HLA-A*2402 or IQGAP3 alone) was “no significant specific CTL activity”, the “specific CTL activity of CTL line” value ([5]; COS7 cells transfected with both IQGAP3 and HLA-A*2402, listed as IQGAP3-A24-9-779) was “potent CTL activity; also recorded: specific CTL activity” and the “IFN-gamma production of established CTL lines (ELISA)” value [6] was “potent IFN-gamma production”. For the same substance, the “IFN-gamma production … (ELISPOT)” value [7] was “potent IFN-gamma production ability”.
With “LLYYrFLNPA (LLYYRFLNPA; not fully specified (residue 5); printed as LLYYrFLNPA) [SEQ ID NO: 121]” the “IFN-gamma production … (ELISPOT)” value (peptide-pulsed T2 cells [1]; listed as IQGAP3-A02-10-1174) was “potent IFN-gamma production ability”, the “IFN-gamma production of established CTL lines (ELISA)” value (peptide-pulsed T2 cells [2]) was “potent IFN-gamma production” and the “IFN-gamma production of CTL clones (ELISA)” value (peptide-pulsed T2 cells [3]; listed as IQGAP3-A02-10-1174) was “potent IFN-gamma production”.
In the case of SLFLFRLGL [SEQ ID NO: 75], the “IFN-gamma production … (ELISPOT)” value (peptide-pulsed T2 cells [1]; listed as IQGAP3-A02-9-146) was “potent IFN-gamma production ability”, the “IFN-gamma production of established CTL lines (ELISA)” value (peptide-pulsed T2 cells [2]) was “potent IFN-gamma production” and the “IFN-gamma production of CTL clones (ELISA)” value (peptide-pulsed T2 cells [3]; listed as IQGAP3-A02-9-146) was “potent IFN-gamma production”.
For VLNDYLEET [SEQ ID NO: 99], the “IFN-gamma production … (ELISPOT)” value (peptide-pulsed T2 cells [1]; listed as IQGAP3-A02-9-1234) was “potent IFN-gamma production ability”, the “IFN-gamma production of established CTL lines (ELISA)” value (peptide-pulsed T2 cells [2]) was “potent IFN-gamma production” and the “specific CTL activity of CTL clone against controls” value [4] was “no significant specific CTL activity”. For the same substance, the “specific CTL activity of CTL clone” value ([4]; listed as IQGAP3-A02-9-1234) was “potent CTL activity; also recorded: specific CTL activity”.
